# Target: Trx-A-NMt-PCP (module 2 of the Sas17 NRPS protein) (Streptomyces calvus, UniProt A0A514JVM2)
# Details: NMt domain; methyl donor for PCP-bound Tyr; 5 mM SAM, 1 h
# Sequence of Trx-A-NMt-PCP (module 2 of the Sas17 NRPS protein) (A0A514JVM2 1553-2567): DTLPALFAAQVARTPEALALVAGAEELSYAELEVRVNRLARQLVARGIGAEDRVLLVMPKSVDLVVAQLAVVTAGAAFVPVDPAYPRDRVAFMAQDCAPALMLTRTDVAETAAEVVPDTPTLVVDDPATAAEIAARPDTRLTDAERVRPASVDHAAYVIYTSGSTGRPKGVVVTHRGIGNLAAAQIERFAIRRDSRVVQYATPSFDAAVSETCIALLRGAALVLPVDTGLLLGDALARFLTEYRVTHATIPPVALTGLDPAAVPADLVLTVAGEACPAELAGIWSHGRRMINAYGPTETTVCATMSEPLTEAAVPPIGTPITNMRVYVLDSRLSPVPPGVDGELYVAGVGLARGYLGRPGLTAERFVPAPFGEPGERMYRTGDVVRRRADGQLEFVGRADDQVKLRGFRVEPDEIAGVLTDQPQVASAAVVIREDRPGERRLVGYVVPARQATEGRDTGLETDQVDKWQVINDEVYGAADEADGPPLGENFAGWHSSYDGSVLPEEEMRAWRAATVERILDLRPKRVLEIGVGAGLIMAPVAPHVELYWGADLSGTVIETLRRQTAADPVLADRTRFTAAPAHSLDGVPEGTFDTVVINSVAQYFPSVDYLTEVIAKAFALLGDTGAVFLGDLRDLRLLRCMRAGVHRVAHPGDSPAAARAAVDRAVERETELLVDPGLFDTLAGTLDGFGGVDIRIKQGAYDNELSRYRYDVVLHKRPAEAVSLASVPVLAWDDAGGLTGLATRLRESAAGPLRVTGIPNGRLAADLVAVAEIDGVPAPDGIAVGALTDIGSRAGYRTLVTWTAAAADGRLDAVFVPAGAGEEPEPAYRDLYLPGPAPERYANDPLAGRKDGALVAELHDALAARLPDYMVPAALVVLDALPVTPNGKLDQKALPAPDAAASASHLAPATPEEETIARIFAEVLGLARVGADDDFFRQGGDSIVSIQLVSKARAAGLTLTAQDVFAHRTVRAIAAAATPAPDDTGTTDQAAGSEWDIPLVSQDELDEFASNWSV
structure (smiles),measurement,value
C[S+](CC[C@H](N)C(=O)O)C[C@H]1O[C@@H](n2cnc3c(N)ncnc32)[C@H](O)[C@@H]1O (stereo partly shown) [SAM],LC-MS of methylamine-cleaved PCP thioester,Reconstitution of the Mt domain using SAM then led to the methylation of the PCP-bound

# From publication PMC10465960 (Acta Pharmaceutica Sinica. B, 2023)
